tested on: Haemonchus contortus; assay: Method A: Haemonchus contortus L1 larvae, microtitre plate screen; details: 96 h, read-out: motility inhibition

Q: Which inhibition at 5 µg/mL does the source give for `C[C@@H]([C@@H]1Cc2cc(F)ccc2O1)N1CCN(C(=O)COC2CCC(Nc3ccc([N+](=O)[O-])c(C(F)(F)F)c3)CC2)CC1` (relative stereo) [Compound 260-10, 1-(4-((S)-1-((S)-5-fluoro-2,3-dihydrobenzofuran-2-yl)ethyl)piperazin-1-yl)-2-(4-(4-nitro-3-(trifluoromethyl)phenylamino)cyclohexyloxy)ethanone] here?
A: ≥ 90%

Q: With `CC(CN1CCN(c2ccc3cc(F)ccc3c2)CC1)C(=O)N1CCC(Nc2ccc([N+](=O)[O-])c(C(F)(F)F)c2)CC1` (stereo not shown) [Compound 16, 3-[4-(6-fluoronaphthalen-2-yl)piperazin-1-yl]-2-methyl-1-(4-[[4-nitro-3-(trifluoromethyl)phenyl]amino]piperi-din-1-yl)propan-1-one] as the compound, how does the inhibition at 5 µg/mL read?
A: ≥ 90%

Q: With `O=C(COc1ccc(Nc2ccc([N+](=O)[O-])c(C(F)(F)F)c2)cc1)N1CCN(CC2Cc3cc(Cl)ccc3O2)CC1` (stereo not shown) [Compound 68, 1-[4-[(5-chloro-2,3-dihydro-1-benzofuran-2-yl)methyl]piperazin-1-yl]-2-(4-[[4-nitro-3-(trifluoromethyl)phenyl]amino]phenoxy)ethan-1-one] as the compound, how does the inhibition at 5 µg/mL read?
A: ≥ 90%

Q: `O=C(NCCO[C@H]1CC[C@H](Nc2ccc([N+](=O)[O-])c(C(F)(F)F)c2)CC1)C(=O)Nc1ccc2ccccc2c1` [Compound 75, N-(naphthalen-2-yl)-N-[2-[(4-[[4-nitro-3-(trifluoromethyl)phenyl]amino]cyclohexyl)oxy]ethyl]ethanediamide] was tested. Which inhibition at 5 µg/mL did it give?
A: ≥ 90%

Q: How did the inhibition at 5 µg/mL turn out when `N#Cc1ccc(N[C@H]2CC[C@H](OCC(=O)N3CCN(C(=O)C4Cc5cc(Cl)ccc5O4)CC3)CC2)cc1C(F)(F)F` (stereo partly shown) [Compound 85, 4-(4-{2-[4-(5-chloro-2,3-dihydro-benzofuran-2-carbonyl)-piperazin-1-yl]-2-oxo-ethoxy}-cyclohexylamino)-2-trifluoromethyl-benzonitrile] was run?
A: ≥ 90%

Q: How did the inhibition at 5 µg/mL turn out when `N#Cc1ccc(N[C@H]2CC[C@H](OCC(=O)N3CCN(C(=O)C4Cc5cc(F)ccc5O4)CC3)CC2)cc1C(F)(F)F` (stereo partly shown) [Compound 86, 4-(4-{2-[4-(5-fluoro-2,3-dihydro-benzofuran-2-carbonyl)-piperazin-1-yl]-2-oxo-ethoxy}-cyclohexylamino)-2-trifluoromethyl-benzonitrile] was run?
A: ≥ 90%

Q: Which inhibition at 5 µg/mL does the source give for `CC(CN1CCN(c2ccc3ccccc3n2)CC1)C(=O)N1CCC(Nc2ccc([N+](=O)[O-])c(C(F)(F)F)c2)CC1` (stereo not shown) [Compound 91, 2-methyl-1-(4-[[4-nitro-3-(trifluoromethyl)phenyl]amino]piperidin-1-yl)-3-[4-(quinolin-2-yl)piperazin-1-yl]propan-1-one] here?
A: ≥ 90%

Q: With `O=C(COc1ccc2ccc([N+](=O)[O-])c(C(F)(F)F)c2c1)N1CCN(c2ccc3cc(C(F)(F)F)ccc3n2)CC1` [Compound 131, 2-[[7-nitro-8-(trifluoromethyl)naphthalen-2-yl]oxy]-1-[4-[6-(trifluoromethyl)quinolin-2-yl]piperazin-1-yl]ethan-1-one] as the compound, how does the inhibition at 5 µg/mL read?
A: ≥ 90%

Q: With `O=C(NCCO[C@H]1CC[C@H](Nc2ccc([N+](=O)[O-])c(C(F)(F)F)c2)CC1)C(=O)Nc1ccc2cc(C(F)(F)F)ccc2c1` [Compound 173] as the compound, how does the inhibition at 5 µg/mL read?
A: ≥ 90%

Q: For `O=C(NCCO[C@H]1CC[C@H](Nc2ccc([N+](=O)[O-])c(C(F)(F)F)c2)CC1)C(=O)Nc1ccc2cc(Cl)ccc2c1` [Compound 174], which inhibition at 5 µg/mL is on record?
A: ≥ 90%

Q: Which inhibition at 5 µg/mL does the source give for `O=C(COc1ccc(Nc2ccc([N+](=O)[O-])c(C(F)(F)F)c2)cc1)N1CCN(C(=O)c2cc3cc(C(F)(F)F)ccc3o2)CC1` [Compound 191, 2-(4-[[4-nitro-3-(trifluoromethyl)phenyl]amino]phenoxy)-1-(4-[[5-(trifluoromethyl)-1-benzofuran-2-yl]carbonyl]piperazin-1-yl)ethan-1-one] here?
A: ≥ 90%

Q: With `O=C(NCCO[C@H]1CC[C@H](Nc2ccc([N+](=O)[O-])c(C(F)(F)F)c2)CC1)C(=O)Nc1ccc2ccccc2n1` [Compound 238, N^1-(2-(-4-(4-nitro-3-(trifluoromethyl)phenylamino)cyclohexyloxy)ethyl)-N^2-(quinolin-2-yl)oxalamide] as the compound, how does the inhibition at 5 µg/mL read?
A: ≥ 90%

Q: For `O=C(NCCO[C@H]1CC[C@H](Nc2ccc([N+](=O)[O-])c(C(F)(F)F)c2)CC1)C(=O)Nc1ccc2cc(F)ccc2n1` [Compound 239, N^1-(6-fluoroquinolin-2-yl)-N^2-(2-(-4-(4-nitro-3-(trifluoromethyl)phenylamino)cyclohexyloxy)ethyl)oxalamide], which inhibition at 5 µg/mL is on record?
A: ≥ 90%

Q: For `O=C(NCCO[C@H]1CC[C@H](Nc2ccc([N+](=O)[O-])c(C(F)(F)F)c2)CC1)C(=O)Nc1ccc2cc(C(F)(F)F)ccc2n1` [Compound 240, N^1-(2-(-4-(4-nitro-3-(trifluoromethyl)phenylamino)cyclohexyloxy)ethyl)-N^2-(6-(trifluoromethyl)quinolin-2-yl)oxalamide], which inhibition at 5 µg/mL is on record?
A: ≥ 90%

Q: How did the inhibition at 5 µg/mL turn out when `O=C(NCCO[C@H]1CC[C@H](Nc2ccc([N+](=O)[O-])c(C(F)(F)F)c2)CC1)C(=O)Nc1ccc2cc(Cl)ccc2n1` [Compound 241, N^1-(6-chloroquinolin-2-yl)-N^2-(2-(-4-(4-nitro-3-(trifluoromethyl)phenylamino)cyclohexyloxy)ethyl)oxalamide] was run?
A: ≥ 90%

Q: How did the inhibition at 5 µg/mL turn out when `O=[N+]([O-])c1ccc(N[C@H]2CC[C@H](OCC(=S)N3CCN(c4ccc5cc(F)ccc5n4)CC3)CC2)cc1C(F)(F)F` [Compound 264, 1-[4-(6-fluoro-quinolin-2-yl)-piperazin-1-yl]-2-[4-(4-nitro-3-trifluoro-methyl-phenylamino)-cyclohexyloxy]-ethanethione] was run?
A: ≥ 90%

Q: Which inhibition at 5 µg/mL does the source give for `O=C(CO[C@H]1CC[C@H](Nc2ccc([N+](=O)[O-])c(C(F)(F)F)c2)CC1)N1CCN(c2ccc3cc(Br)ccc3c2F)CC1` [Compound 267, 1-[4-(6-bromo-1-fluoro-naphthalen-2-yl)-piperazin-1-yl]-2-[4-(4-nitro-3-trifluoromethyl-phenylamino)-cyclohexyloxy]-ethanone] here?
A: ≥ 90%

Q: Which inhibition at 5 µg/mL does the source give for `O=C(CO[C@H]1CC[C@H](Nc2ccc([N+](=O)[O-])c(C(F)(F)F)c2)CC1)N1CCN(c2ccc3cc(Br)ccc3c2)CC1` [Compound 268, 1-[4-(6-bromo-naphthalen-2-yl)-piperazin-1-yl]-2-[4-(4-nitro-3-trifluoromethyl-phenylamino)-cyclohexyloxy]-ethanone] here?
A: ≥ 90%

Q: How did the inhibition at 5 µg/mL turn out when `CN(c1ccc(C#N)c(C(F)(F)F)c1)[C@H]1CC[C@H](OCC(=O)N2CCN(CC3Cc4cc(F)ccc4O3)CC2)CC1` (stereo partly shown) [Compound 280, 4-[(4-{2-[4-(5-fluoro-2,3-dihydro-benzofuran-2-ylmethyl)-piperazin-1-yl]-2-oxo-ethoxy}-cyclohexyl)-methyl-amino]-2-trifluoromethyl-benzonitrile] was run?
A: ≥ 90%

Q: How did the inhibition at 5 µg/mL turn out when `N#Cc1ccc(N[C@H]2CC[C@H](OCC(=O)N3CCN(Cc4nc5cc(Cl)ccc5o4)CC3)CC2)cc1C(F)(F)F` [Compound 288, 2-[(4-[[4-cyano-3-(trifluoromethyl)phenyl]amino]cyclohexyl)-oxy]1-[4-(5-chlorobenzoxazol-2-ylmethyl)piperazin-1-yl]ethan-1-one] was run?
A: ≥ 90%

Q: How did the inhibition at 5 µg/mL turn out when `CN(c1ccc(C#N)c(C(F)(F)F)c1)[C@H]1CC[C@H](OCC(=O)N2CCN(c3ccc4cc(F)ccc4c3)CC2)CC1` [Compound 293, 4-[(4-{2-[4-(6-fluoro-naphthalen-2-yl)-piperazin-1-yl]-2-oxo-ethoxy}-cyclohexyl)-methyl-amino]-2-trifluoromethyl-benzonitrile] was run?
A: ≥ 90%

Q: Which inhibition at 5 µg/mL does the source give for `O=C(COC1CCC(Oc2ccc([N+](=O)[O-])c(C(F)(F)F)c2)CC1)N1CCN(Cc2nc3cc(C(F)(F)F)ccc3s2)CC1` (stereo not shown) [Compound 311, 2-[4-(4-nitro-3-trifluoromethyl-phenoxy)-cyclohexyloxy]-1-[4-(5-trifluoromethyl-benzothiazol-2-ylmethyl)-piperazin-1-yl]-ethanone] here?
A: ≥ 90%

Q: How did the inhibition at 5 µg/mL turn out when `O=C(CO[C@H]1CC[C@H](Nc2ccc([N+](=O)[O-])c(C(F)(F)F)c2)CC1)N1CCN(Cc2oc3ccc(F)cc3c2Cl)CC1` [Compound 312, 1-[4-(3-chloro-5-fluoro-benzofuran-2-ylmethyl)-piperazin-1-yl]-2-[4-(4-nitro-3-trifluoromethyl-phenylamino)-cyclohexyloxy]-ethanone] was run?
A: ≥ 90%

Q: Which inhibition at 5 µg/mL does the source give for `N#Cc1ccc(N[C@H]2CC[C@H](OCC(=O)N3CCN(Cc4oc5ccc(F)cc5c4Cl)CC3)CC2)cc1C(F)(F)F` [Compound 313, 4-(4-{2-[4-(3-chloro-5-fluoro-benzofuran-2-ylmethyl)-piperazin-1-yl]-2-oxo-ethoxy}-cyclohexylamino)-2-trifluoromethyl-benzonitrile] here?
A: ≥ 90%

Q: With `N#Cc1ccc(N[C@H]2CC[C@H](OCC(=O)N3CCN(Cc4oc5ccc(Cl)cc5c4Cl)CC3)CC2)cc1C(F)(F)F` [Compound 315, 4-(4-{2-[4-(3,5-dichloro-benzofuran-2-ylmethyl)-piperazin-1-yl]-2-oxo-ethoxy}-cyclohexylamino)-2-trifluoromethyl-benzonitrile] as the compound, how does the inhibition at 5 µg/mL read?
A: ≥ 90%

Q: `O=C(CO[C@H]1CC[C@H](Nc2ccc([N+](=O)[O-])c(C(F)(F)F)c2)CC1)N1CCN(Cc2oc3ccc(Cl)cc3c2Cl)CC1` [Compound 316, 1-[4-(3,5-dichloro-benzofuran-2-ylmethyl)-piperazin-1-yl]-2-[4-(4-nitro-3-trifluoromethyl-phenylamino)-cyclohexyloxy]-ethanone] was tested. Which inhibition at 5 µg/mL did it give?
A: ≥ 90%

Q: With `O=C(CO[C@H]1CC[C@H](Nc2ccc([N+](=O)[O-])c(C(F)(F)F)c2)CC1)N1CCN(Cc2cc3c(Cl)cc(Cl)cc3o2)CC1` [Compound 318, 2-[(4-[[4-nitro-3-(trifluoromethyl)phenyl]amino]cyclohexyl)-oxy]1-[4-(4,6-dichlorobenzofuran-2-ylmethyl)piperazin-1-yl]ethan-1-one] as the compound, how does the inhibition at 5 µg/mL read?
A: ≥ 90%

Q: With `O=C(CO[C@H]1CC[C@H](Nc2ccc([N+](=O)[O-])c(C(F)(F)F)c2)CC1)N1CCN(Cc2cc3cc(Cl)cc(Cl)c3o2)CC1` [Compound 319, 2-[(4-[[4-nitro-3-(trifluoromethyl)phenyl]amino]cyclohexyl)-oxy]1-[4-(5,7-dichlorobenzofuran-2-ylmethyl)piperazin-1-yl]ethan-1-one] as the compound, how does the inhibition at 5 µg/mL read?
A: ≥ 90%
